Experimental findings from publication PMC9147323, “Phytochemical content, especially spermidine derivatives, presenting antioxidant and antilipoxygenase activities in Thai bee pollens” (PeerJ, 2022) are described below.

The nature of assay [1]: ABTS radical scavenging activity / Trolox equivalent antioxidant capacity (TEAC). Particulars: for ABTS EC50: mean ± 1 SD; for ABTS (µmol TE/g): fractions after SiG60-CC and HPLC, mean ± 1SD.
Protocol: The TEAC assay followed the described method ([Suriyatem et al., 2017]). The stock ABTS^•+ solution was prepared by reacting 7 mM ABTS solution with 2.45 mM potassium persulphate solution in distilled water at a 1:1 (v/v) ratio in the dark at room temperature for 16 h before use. The working ABTS^•+ solution was prepared by diluting the stock ABTS^•+ solution (one mL) with ethanol (35 mL) to get an absorbance at 734 nm (A734) of 0.700 ± 0.025. […] The percentage of inhibition was calculated according to Eq. (2), (2) % ABTS radical scavenging activity=A−B/A×100, where A is the A734of the negative control and B is the A734of the treatment.
Assay [2] is described as follows: DPPH free radical scavenging activity assay. The note with it: mean ± 1 SD. The method, then: The potential of the partitioned extracts was determined as previously described ([Khongkarat et al., 2020]). Five different concentrations of each sample were prepared in DMSO. […] The absorbance was measured at a wavelength of 517 nm ([…]) using a microplate reader. Ascorbic acid (vitamin C) was used as the standard reference. Each assay was performed in triplicate. The free radical scavenging activity was calculated from Eq. (1): (1) % DPPH radical scavenging activity=A-B/A×100, where A is the […] the negative control and B is the […] of the treatment.

For the next assay, the target named is T1, LOX from soybean (Glycine max, UniProt P08170).
T1 sequence (P08170 1-839): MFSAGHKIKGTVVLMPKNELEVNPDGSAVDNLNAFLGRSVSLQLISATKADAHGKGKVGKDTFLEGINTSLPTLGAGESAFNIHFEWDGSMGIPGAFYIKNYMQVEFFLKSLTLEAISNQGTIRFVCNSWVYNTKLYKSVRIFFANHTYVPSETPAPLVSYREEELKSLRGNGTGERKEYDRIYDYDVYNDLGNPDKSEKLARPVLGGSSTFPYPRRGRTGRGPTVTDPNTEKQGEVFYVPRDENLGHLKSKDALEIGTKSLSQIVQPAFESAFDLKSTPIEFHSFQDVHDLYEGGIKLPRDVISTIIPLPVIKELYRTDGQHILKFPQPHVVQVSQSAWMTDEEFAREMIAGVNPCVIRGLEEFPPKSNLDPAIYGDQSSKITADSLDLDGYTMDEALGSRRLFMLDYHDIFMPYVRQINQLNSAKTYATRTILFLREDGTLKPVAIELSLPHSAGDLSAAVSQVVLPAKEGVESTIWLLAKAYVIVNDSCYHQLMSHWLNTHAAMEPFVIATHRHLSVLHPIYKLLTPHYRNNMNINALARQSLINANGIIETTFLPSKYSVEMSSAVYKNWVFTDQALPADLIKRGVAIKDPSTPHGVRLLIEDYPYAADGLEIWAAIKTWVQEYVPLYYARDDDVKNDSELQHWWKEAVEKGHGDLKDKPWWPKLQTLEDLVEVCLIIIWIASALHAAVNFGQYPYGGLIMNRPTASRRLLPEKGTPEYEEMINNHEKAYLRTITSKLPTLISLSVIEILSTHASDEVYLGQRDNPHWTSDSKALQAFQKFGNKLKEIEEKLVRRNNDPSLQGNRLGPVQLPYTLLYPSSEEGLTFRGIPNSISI
Kind of assay: In vitro LOXI activity. The note with it: mean ± 1 SD.

Assay [3] can be described thus: Ferric reducing antioxidant power (FRAP). The note with it: fractions after SiG60-CC and HPLC; mean ± 1SD. The method, then:
The FRAP assay was performed as previously described ([Sun et al., 2017]). The FRAP reagent was freshly prepared by mixing 100 mL of 300 mM acetate buffer (pH 3.6), 10 mL of 10 mM 2,4,6-tris(2pyridyl)-s-triazine solution in 40 mM hydrochloric acid, and 10 mL of 20 mM ferric chloride solution. Later, 100 µL of the sample at a desired concentration was added to three mL of the FRAP reagent and incubated at 37 °C in a water bath for 6 min. The absorbance was measured at a wavelength of 593 nm. Aqueous solutions of ferrous sulfate (0–2,000 µM) were used to establish the standard graph and the reducing capacity was expressed as µmole of Fe^2+/g extract. Each assay was performed in triplicate.

Molecules are shown by their SMILES. Several values for one entry are separate records, joined by “and”; a condition that tells them apart may be missing. Equal entries are not always repeated. Marks after values point to notes of the source that are not given here.

Consider `O=C1O[C@H]([C@@H](O)CO)C(O)=C1O` [Ascorbic acid, reference compound], for which the “ABTS EC50” value in assay [1] is 44.54 ± 0.19^a µg/mL and 44.54 ± 0.19^c µg/mL and 44.54 ± 0.19^b µg/mL; in assay [1] (listed as ascorbic acid), 44.54 ± 0.19 µg/mL. Also, the “DPPH EC50” value in assay [2] was 68.00 ± 1.13^a µg/mL and 68.00 ± 1.13^b µg/mL; in assay [2] (listed as ascorbic acid) it was 68.00 ± 1.13 µg/mL.

In the case of `COc1cc(C=CC(=O)NCCCCN(CCCNC(=O)C=Cc2ccc(O)c(OC)c2)C(=O)C=Cc2ccc(O)c(OC)c2)ccc1O` [DCMMBP3-1, N^1, N^5, N^10-triferuloyl spermidine], the “LOXI IC50” value on LOX from soybean is 11.31 ± 0.46^a µg/mL. Further, in assay [1], the “ABTS (µmol TE/g)” value is recorded as 2,527.63 ± 7.99^a µmol TE/g and the “ABTS EC50” value was 25.38 ± 0.67^a µg/mL. Also, the “FRAP (µmol Fe^2+/g)” value in assay [3] was 3,477.33 ± 52.07^a µmol Fe^2+/g. In assay [2], the “DPPH EC50” value is on record as 53.05 ± 2.60^a µg/mL.

Regarding `COc1cc(/C=C/C(=O)NCCCCN(CCCNC(=O)/C=C/c2ccc(O)c(OC)c2)C(=O)/C=C/c2ccc(O)c(OC)c2)ccc1O` [DCMMBP3-2, N^1, N^5, N^10-tri-(E, E, E)-feruloyl spermidine], the “LOXI IC50” value at LOX from soybean is reported as 11.57 ± 0.93^a µg/mL. Besides, in assay [1], the “ABTS (µmol TE/g)” value is 2,339.16 ± 34.62^b µmol TE/g and the “ABTS EC50” value was 28.29 ± 1.05^b µg/mL. The “FRAP (µmol Fe^2+/g)” value in assay [3] is 3,091.78 ± 44.48^b µmol Fe^2+/g. Also, in assay [2], the “DPPH EC50” value was 57.7 ± 2.77^a µg/mL.
